Results from ChEMBL document CHEMBL4418315, “Atg7 inhibitors and the uses thereof” (2018).

Legend:
[1] = molecular target: T1, Ubiquitin-like modifier-activating enzyme ATG7 (Homo sapiens) (UniProt O95352); assay: Inhibition of recombinant His-tagged human ATG7 at 0.111 uM incubated for 105 mins in presence of GST-tagged ATG3 and Flag-tagged Gabarap and measured after 2 hrs by FRET assay relative to control
T1 sequence (whole entry): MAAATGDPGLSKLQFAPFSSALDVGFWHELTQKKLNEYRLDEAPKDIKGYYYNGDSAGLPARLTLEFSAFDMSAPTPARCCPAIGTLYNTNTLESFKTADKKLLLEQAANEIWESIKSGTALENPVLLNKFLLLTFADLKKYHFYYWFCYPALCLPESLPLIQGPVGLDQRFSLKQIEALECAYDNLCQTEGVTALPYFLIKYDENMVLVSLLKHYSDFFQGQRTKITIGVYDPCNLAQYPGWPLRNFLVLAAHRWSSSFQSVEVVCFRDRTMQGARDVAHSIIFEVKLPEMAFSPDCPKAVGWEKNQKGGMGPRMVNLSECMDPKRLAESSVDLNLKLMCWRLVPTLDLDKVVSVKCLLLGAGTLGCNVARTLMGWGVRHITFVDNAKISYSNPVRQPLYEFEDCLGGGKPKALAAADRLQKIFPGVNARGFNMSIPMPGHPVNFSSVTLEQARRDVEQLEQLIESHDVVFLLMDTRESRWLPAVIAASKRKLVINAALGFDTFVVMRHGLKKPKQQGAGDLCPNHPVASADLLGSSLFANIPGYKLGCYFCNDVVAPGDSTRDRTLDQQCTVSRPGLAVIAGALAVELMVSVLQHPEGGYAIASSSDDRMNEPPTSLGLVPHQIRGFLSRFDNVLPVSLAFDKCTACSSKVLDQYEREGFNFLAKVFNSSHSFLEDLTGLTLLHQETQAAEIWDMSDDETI

[2] = molecular target: T2, Ubiquitin-like modifier-activating enzyme ATG7 (Homo sapiens, UniProt O95352); assay: Inhibition of recombinant His-tagged human ATG7 incubated for 105 mins in presence of GST-tagged ATG3 and Flag-tagged Gabarap and measured after 2 hrs by FRET assay
T2 sequence (O95352 whole entry): T1 sequence (whole entry)

Row | Compound | inhibition [1] [%] | IC50 [2] [nM]
1 | CC[C@@H](C)Sc1nn([C@@H]2O[C@H](COS(N)(=O)=O)[C@@H](O)[C@@H]2F)c2ncnc(N)c12 | 63 | –
2 | Nc1ncnc2c1c(SCCO)nn2[C@@H]1O[C@H](COS(N)(=O)=O)[C@@H](O)[C@@H]1F | – | 20 to 50
3 | Cc1ccc(Sc2nn([C@H]3C[C@H](O)[C@@H](COS(N)(=O)=O)O3)c3ncnc(N)c23)c(F)c1 | 59 to 64 | –
4 | CC[C@H](C)Sc1nn([C@@H]2O[C@H](COS(N)(=O)=O)[C@@H](O)[C@@H]2F)c2ncnc(N)c12 | 61 | –

Other lines, results leading:

Row | inhibition [1] [%] | IC50 [2] [nM] | Compound
5 | 5 | – | Nc1ncnc2c1cnn2[C@H]1C[C@H](O)[C@H](COS(N)(=O)=O)O1
6 | – | > 500 | CCc1nn([C@H]2C[C@H](O)[C@H](COS(N)(=O)=O)O2)c2ncnc(N)c12
